Like-named read-outs stand apart in the source and are kept apart here.

This passage reports CD minimum and absorbance plateau results from patent US9638702B2 (priority 2001, dated 2017).

Series [1] is classed as physicochemical.
Series [2] is classed as physicochemical. The source holds these as a separate data set.

As to poly-L-lysine, the CD minimum result was “approximately 205 nm” in series [1] (pH 7) and “approximately 216 nm” in series [1] (pH 11). Further, the absorbance plateau result in series [2] (pH 7) is on record as “approximately 0.22”; in series [2] (pH 11) it was “approximately 0.12”.
